# How the values were obtained:
# [1] = molecular target: Protein kinase C (PKC); test: Tested for inhibition of protein kinase C from rat brain
# [2] = molecular target: T1, cGMP-dependent protein kinase 1 (Bos taurus, UniProt P00516); test: Tested for inhibition of cGMP-dependent protein kinase from bovine lung
# T1 sequence (P00516 whole entry): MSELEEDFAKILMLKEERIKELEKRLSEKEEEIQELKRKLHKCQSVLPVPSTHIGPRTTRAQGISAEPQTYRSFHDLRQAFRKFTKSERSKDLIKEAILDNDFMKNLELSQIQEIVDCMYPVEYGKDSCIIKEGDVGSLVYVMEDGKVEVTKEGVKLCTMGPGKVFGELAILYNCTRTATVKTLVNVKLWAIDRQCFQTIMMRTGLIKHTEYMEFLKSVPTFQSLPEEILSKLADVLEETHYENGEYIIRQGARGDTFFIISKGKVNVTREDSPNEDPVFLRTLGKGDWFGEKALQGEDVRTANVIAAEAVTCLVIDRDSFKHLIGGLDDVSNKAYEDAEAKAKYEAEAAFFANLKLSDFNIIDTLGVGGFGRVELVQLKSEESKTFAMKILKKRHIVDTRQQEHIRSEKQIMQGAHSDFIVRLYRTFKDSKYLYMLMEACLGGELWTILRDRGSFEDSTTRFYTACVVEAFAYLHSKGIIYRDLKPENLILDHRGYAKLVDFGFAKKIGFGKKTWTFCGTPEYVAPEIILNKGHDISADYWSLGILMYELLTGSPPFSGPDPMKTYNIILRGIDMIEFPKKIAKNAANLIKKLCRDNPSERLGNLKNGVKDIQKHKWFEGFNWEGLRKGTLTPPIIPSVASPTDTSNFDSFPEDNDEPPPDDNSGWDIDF
# [3] = Tested for inhibition of catalytic subunit of cAMP-dependent protein kinase from bovine heart
# [4] = molecular target: Tyrosine-protein kinase Blk (Mus musculus, UniProt P16277); test: Tested for inhibition of general tyrosine-specific protein kinase activity from murine B cell lysate; format: cell-based
# Chain of Tyrosine-protein kinase Blk (P16277 whole entry): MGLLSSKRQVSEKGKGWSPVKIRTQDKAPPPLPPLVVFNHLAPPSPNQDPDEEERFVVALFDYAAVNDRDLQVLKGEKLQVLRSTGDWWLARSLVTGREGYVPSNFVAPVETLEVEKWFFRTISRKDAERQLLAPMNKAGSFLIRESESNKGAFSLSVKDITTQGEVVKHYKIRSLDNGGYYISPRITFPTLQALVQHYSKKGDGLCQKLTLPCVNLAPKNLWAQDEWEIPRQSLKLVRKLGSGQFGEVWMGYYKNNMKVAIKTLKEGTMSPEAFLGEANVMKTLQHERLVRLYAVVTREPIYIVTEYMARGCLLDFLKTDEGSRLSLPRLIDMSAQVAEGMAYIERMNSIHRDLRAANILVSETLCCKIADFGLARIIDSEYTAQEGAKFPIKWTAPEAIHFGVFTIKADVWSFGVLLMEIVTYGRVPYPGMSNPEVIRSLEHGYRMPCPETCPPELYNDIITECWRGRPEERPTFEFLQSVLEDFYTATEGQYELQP
SMILES,IC50 [1],IC50 [2],IC50 [3],IC50 [4],IC50 ([1]; read-out: IC50)
CN(C)CCCn1c2ccc(O)cc2c2c3c(c4c5cc(O)ccc5[nH]c4c21)C(=O)NC3,16 nM,–,–,–,–
COc1ccc2[nH]c3c(c4c(c5c6cc(OC)ccc6n(CCCN(C)C)c35)CNC4=O)c2c1,550 nM,–,–,–,–
COc1ccc2c(c1)c1c3c(c4c5ccccc5n(CCC#N)c4c1n2C)C(=O)NC3=O,16 nM,–,–,–,–
Cn1c2ccccc2c2c3c(c4c5ccccc5n(CCC#N)c4c21)C(=O)NC3=O,38 nM,7200 nM,> 30000 nM,–,–
Cn1c2ccc(O)cc2c2c3c(c4c5cc(O)ccc5n(CCC#N)c4c21)CNC3=O,9 nM,–,–,–,–
COc1ccc2c(c1)c1c3c(c4c5cc(OC)ccc5n(CCC#N)c4c1n2C)C(=O)NC3=O,6 nM,–,–,–,–
Cn1c2ccccc2c2c3c(c4c5ccccc5n(CCC#N)c4c21)CNC3=O [GO-6976],–,–,> 100000 nM,–,20 nM

# Results, then the compound that gave them:
IC50 [1],IC50 [2],IC50 [3],IC50 [4],IC50 ([1]; read-out: IC50),SMILES
230 nM,420 nM,> 10000 nM,–,–,CN(C)CCCn1c2ccccc2c2c3c(c4c5ccccc5[nH]c4c21)C(=O)NC3
32 nM,220 nM,750 nM,–,–,Cn1c2ccccc2c2c3c(c4c5ccccc5n(CCCN)c4c21)CNC3=O
21 nM,2100 nM,6300 nM,–,–,CN(C)CC(O)Cn1c2ccccc2c2c3c(c4c5ccccc5n(C)c4c21)C(=O)NC3=O (centres undefined)
5 nM,1000 nM,200 nM,–,–,COc1ccc2c(c1)c1c3c(c4c5ccccc5n(C)c4c1n2CCCC#N)C(=O)NC3=O
4 nM,4800 nM,510 nM,–,–,COc1ccc2c(c1)c1c3c(c4c5ccccc5n(C)c4c1n2CC(O)CN(C)C)C(=O)NC3=O (centres undefined)
45 nM,870 nM,9900 nM,–,–,CN(C)CCCn1c2ccccc2c2c3c(c4c5ccccc5n(C)c4c21)C(=O)NC3
2 nM,> 3000 nM,400 nM,> 10000 nM,–,COc1ccc2c(c1)c1c3c(c4c5ccccc5n(C)c4c1n2CCC#N)C(=O)NC3=O
86 nM,23000 nM,15000 nM,> 10000 nM,–,COc1ccc2c(c1)c1c3c(c4c5ccccc5n(C)c4c1n2CC(O)CN(C)C)C(=O)NC3 (centres undefined)
30 nM,9400 nM,24000 nM,> 100000 nM,–,CN(C)CC(O)Cn1c2ccccc2c2c3c(c4c5ccccc5n(C)c4c21)C(=O)NC3 (centres undefined)
56 nM,2000 nM,45000 nM,> 10000 nM,–,COc1ccc2c(c1)c1c3c(c4c5cc(OC)ccc5n(CCC#N)c4c1n2C)CNC3=O
